According to PMC9721423, “Novel benzo chromene derivatives: design, synthesis, molecular docking, cell cycle arrest, and apoptosis induction in human acute myeloid leukemia HL-60 cells” (Journal of Enzyme Inhibition and Medicinal Chemistry, 2022):
Where two headings read alike, the source gives them in different places.

Columns and labels:
Assay in all cases: cells
Parameters in all cases: species or system NCI-60 human tumour cell lines; NCI-60 five-dose growth inhibition screen, sulforhodamine B protein stain
PC-3 = conditions: Homo sapiens, PC-3, 48 h
Experimental: (§1) All the newly synthesised 28 compounds were selected for single-dose testing. NCI60 single-dose testing is performed in all 60 cell lines according to the reported assay (National Cancer Institute, https://dtp.cancer.gov/) (National Cancer Institute https://dtp.cancer.gov/discovery_development/nci-60/), compounds were dissolved in DMSO: glycerol […] and are stored in a −70 °C freezer. The prepared compounds were added at single concentration of 1 0^−5 M and the culture was incubated for 48 h. End point determinations were made with a protein binding dye, sulforhodamine B (SRB). The human tumour cell lines were derived from nine different cancer types: leukaemia, melanoma, lung, colon, central nervous system (CNS), ovarian, renal, prostate, and breast cancers. Dose–response curves for these compounds were created by plotting the percentage growth (PGs or % growth) against log10 of the corresponding concentration for every cell line. Three response parameters, GI50 (Median Growth Inhibitory Concentration), TGI (Total Growth Inhibitory Concentration), and LC50 (Median Lethal Concentration) were calculated[54] (National Cancer Institute, https://dtp.cancer.gov/discovery_development/nci-60/) (National Cancer Institute, https://dtp.cancer.gov/)[55] for compounds 5a and 6a. […] Furthermore, the average sensitivity of all cell lines towards the compound is termed as the full panel mean graph midpoints (MG-MID). The ratio obtained by dividing the full panel mean graph midpoints (MG-MID) concentration by the individual subpanel MG-MID concentrations (obtained as the average sensitivity of all cell lines of a particular subpanel towards the test compound) is considered a criterion for the compound selectivity towards the corresponding cell line. Ratios greater than 6 indicate high selectivity while ratios between 3 and 6 refer to moderate selectivity whereas compounds not meeting either of these criteria were rated non-selective[56].

MALME-3M = conditions: Homo sapiens, Malme-3M, 48 h
Experimental: as §1

EKVX = conditions: Homo sapiens, EKVX, 48 h
Experimental: as §1

MDA-MB-468 = conditions: Homo sapiens, MDA-MB-468, 48 h
Experimental: as §1

MCF7 = conditions: Homo sapiens, MCF7, 48 h
Experimental: as §1

NCI-H460 = conditions: Homo sapiens, NCI-H460, 48 h
Experimental: as §1

U251 = conditions: Homo sapiens, U-251, 48 h
Experimental: as §1

LOX IMVI = conditions: Homo sapiens, LOX IMVI, 48 h
Experimental: as §1

DU-145 = conditions: Homo sapiens, DU-145, 48 h
Experimental: as §1

OVCAR-5 = conditions: Homo sapiens, OVCAR-5, 48 h
Experimental: as §1

SK-OV-3 = conditions: Homo sapiens, SK-OV-3, 48 h
Experimental: as §1

IGROV1 = conditions: Homo sapiens, IGROV-1, 48 h
Experimental: as §1

M14 = conditions: Homo sapiens, M14, 48 h
Experimental: as §1

SF-539 = conditions: Homo sapiens, SF-539, 48 h
Experimental: as §1

KM12 = conditions: Homo sapiens, KM12, 48 h
Experimental: as §1

A498 = conditions: Homo sapiens, A498, 48 h
Experimental: as §1

SNB-75 = conditions: Homo sapiens, SNB-75, 48 h
Experimental: as §1

N=C(NO)C1=C(N)Oc2c(ccc3ccccc23)C1c1ccccc1 (stereo not shown) [5a, 2-Amino-4-phenyl-N-hydroxy-4H-benzo[h]chromene-3-carboxamidine]
GI50 (PC-3; read-out: GI50 5a): 230 nM | GI50 (MALME-3M; read-out: GI50 5a): 15.6 µM | GI50 (EKVX; read-out: GI50 5a): 0.82 µM | GI50 (MDA-MB-468; read-out: GI50 5a): 1990 nM | GI50 (MCF7; read-out: GI50 5a): 210 nM | GI50 (NCI-H460; read-out: GI50 5a): 310 nM | GI50 (U251; read-out: GI50 5a): 380 nM | GI50 (LOX IMVI; read-out: GI50 5a): 540 nM | GI50 (DU-145; read-out: GI50 5a): 460 nM | GI50 (OVCAR-5): 610 nM | GI50 (SK-OV-3; read-out: GI50 5a): 620 nM | GI50 (IGROV1; read-out: GI50 5a): 330 nM | GI50 (M14; read-out: GI50 5a): 130 nM | GI50 (SF-539; read-out: GI50 5a): 210 nM | GI50 (KM12; read-out: GI50 5a): 220 nM | GI50 (A498; read-out: GI50 5a): 110 nM | GI50 (SNB-75; read-out: GI50 5a): 80 nM

CC(=O)NC1=C(C#N)C(c2ccccc2)c2ccc3ccccc3c2O1 (stereo not shown) [6a, N-(3-Cyano-4-phenyl-4H-benzo[h]chromen-2-yl)acetamide]
GI50 (PC-3; read-out: GI50 6a): 460 nM | GI50 (MALME-3M; read-out: GI50 6a): 0.67 µM | GI50 (EKVX; read-out: GI50 6a): 49.9 µM | GI50 (MDA-MB-468; read-out: GI50 6a): 240 nM | GI50 (MCF7; read-out: GI50 6a): 470 nM | GI50 (NCI-H460; read-out: GI50 6a): 370 nM | GI50 (U251; read-out: GI50 6a): 490 nM | GI50 (LOX IMVI; read-out: GI50 6a): 600 nM | GI50 (DU-145; read-out: GI50 6a): 730 nM | GI50 (OVCAR-5; read-out: GI50 6a): 2100 nM | GI50 (SK-OV-3; read-out: GI50 6a): 490 nM | GI50 (IGROV1; read-out: GI50 6a): 530 nM | GI50 (M14; read-out: GI50 6a): 560 nM | GI50 (SF-539; read-out: GI50 6a): 350 nM | GI50 (KM12; read-out: GI50 6a): 430 nM | GI50 (A498; read-out: GI50 6a): 200 nM | GI50 (SNB-75; read-out: GI50 6a): 240 nM
